Test results from US12662479B2 (Foghorn Therapeutics Inc., priority 2020, dated 2026).

Key:
[1] = target: T1, HiBit-BRM fusion protein (Homo sapiens, UniProt P51531); assay: HiBiT-BRM cell-based degradation assay (Nano-Glo HiBiT Lytic Detection, 24 h); settings: HeLa cells expressing HiBiT-BRM; for DC50: read-out: BRM HiBit Degradation IC50; for BRM HiBit Degradation Maximum measured: top dose 30 μM
T1 construct: expressed in transfected cells
Outline: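 Residual HiBiT-BRM in a stable HeLa line was measured by Nano-Glo lytic luminescence after 24 h compound exposure (top final dose 30 μM, 3-fold, 10 points, duplicate). Values are % degradation, scaled between DMSO-treated cells and cells given 2 μM of a known BRM/BRG1 degrader.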

[2] = target: T2, HiBit-BRG1 fusion protein (Homo sapiens, UniProt P51532); assay: HiBiT-BRG1 cell-based degradation assay (Nano-Glo HiBiT Lytic Detection, 24 h); settings: HeLa cells expressing HiBit-BRG1 and LgBit; for DC50: read-out: BRG1 HiBit Degradation IC50; for Dmax: HeLa, top dose 30 μM, read-out: BRG1 HiBit Degradation Maximum measured
T2 construct: expressed in transfected cells
Outline: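 Degradation is scaled from DMSO-treated cells (0%) to cells given 2 μM of a known BRM/BRG1 degrader (100%). HeLa cells stably carrying HiBiT-BRG1 plus LgBiT (5000/well) were lysed with Nano-Glo HiBiT detection reagent, shaken 10 min at RT, and luminescence read.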

T1 sequence (P51531 whole entry, the tested form may be a part): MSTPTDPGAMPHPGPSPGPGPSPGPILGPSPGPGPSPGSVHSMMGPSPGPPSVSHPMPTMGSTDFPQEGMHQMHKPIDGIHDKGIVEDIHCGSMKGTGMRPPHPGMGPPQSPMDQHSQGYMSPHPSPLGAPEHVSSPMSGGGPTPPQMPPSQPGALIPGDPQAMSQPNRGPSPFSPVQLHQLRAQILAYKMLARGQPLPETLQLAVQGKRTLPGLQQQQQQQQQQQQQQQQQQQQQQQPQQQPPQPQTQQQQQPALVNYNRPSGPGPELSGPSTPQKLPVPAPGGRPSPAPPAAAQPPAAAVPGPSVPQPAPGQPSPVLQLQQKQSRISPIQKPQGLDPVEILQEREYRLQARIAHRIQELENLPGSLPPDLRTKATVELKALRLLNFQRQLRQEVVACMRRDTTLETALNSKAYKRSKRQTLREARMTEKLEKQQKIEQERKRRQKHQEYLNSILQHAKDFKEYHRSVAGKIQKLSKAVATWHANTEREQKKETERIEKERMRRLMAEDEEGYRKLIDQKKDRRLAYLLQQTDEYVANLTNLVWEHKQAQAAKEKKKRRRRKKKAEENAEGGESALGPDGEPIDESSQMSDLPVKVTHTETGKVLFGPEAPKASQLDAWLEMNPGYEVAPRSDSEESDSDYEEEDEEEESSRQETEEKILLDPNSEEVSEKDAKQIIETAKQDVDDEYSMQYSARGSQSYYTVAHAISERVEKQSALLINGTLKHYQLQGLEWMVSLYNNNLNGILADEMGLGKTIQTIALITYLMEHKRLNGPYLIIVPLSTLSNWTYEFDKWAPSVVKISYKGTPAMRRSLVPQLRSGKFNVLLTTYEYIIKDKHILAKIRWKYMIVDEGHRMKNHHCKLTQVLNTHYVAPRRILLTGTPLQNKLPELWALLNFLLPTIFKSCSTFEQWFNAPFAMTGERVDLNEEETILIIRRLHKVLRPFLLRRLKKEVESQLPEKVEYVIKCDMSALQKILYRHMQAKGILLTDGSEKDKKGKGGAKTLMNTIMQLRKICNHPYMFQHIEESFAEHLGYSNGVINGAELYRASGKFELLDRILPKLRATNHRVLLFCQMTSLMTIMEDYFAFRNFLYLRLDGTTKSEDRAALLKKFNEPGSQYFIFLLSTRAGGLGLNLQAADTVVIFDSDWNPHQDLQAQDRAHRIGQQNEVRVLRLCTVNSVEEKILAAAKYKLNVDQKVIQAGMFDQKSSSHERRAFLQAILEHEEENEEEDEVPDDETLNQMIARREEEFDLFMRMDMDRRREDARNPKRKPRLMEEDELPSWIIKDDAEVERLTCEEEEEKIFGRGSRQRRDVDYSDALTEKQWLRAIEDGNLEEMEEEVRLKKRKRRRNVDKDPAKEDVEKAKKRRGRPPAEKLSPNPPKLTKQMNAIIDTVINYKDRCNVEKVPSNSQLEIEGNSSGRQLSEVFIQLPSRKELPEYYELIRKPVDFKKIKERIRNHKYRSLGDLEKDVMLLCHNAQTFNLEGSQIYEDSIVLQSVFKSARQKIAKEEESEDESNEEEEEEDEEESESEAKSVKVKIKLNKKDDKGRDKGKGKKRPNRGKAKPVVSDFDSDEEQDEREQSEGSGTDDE
T2 sequence (P51532 whole entry, the tested form may be a part): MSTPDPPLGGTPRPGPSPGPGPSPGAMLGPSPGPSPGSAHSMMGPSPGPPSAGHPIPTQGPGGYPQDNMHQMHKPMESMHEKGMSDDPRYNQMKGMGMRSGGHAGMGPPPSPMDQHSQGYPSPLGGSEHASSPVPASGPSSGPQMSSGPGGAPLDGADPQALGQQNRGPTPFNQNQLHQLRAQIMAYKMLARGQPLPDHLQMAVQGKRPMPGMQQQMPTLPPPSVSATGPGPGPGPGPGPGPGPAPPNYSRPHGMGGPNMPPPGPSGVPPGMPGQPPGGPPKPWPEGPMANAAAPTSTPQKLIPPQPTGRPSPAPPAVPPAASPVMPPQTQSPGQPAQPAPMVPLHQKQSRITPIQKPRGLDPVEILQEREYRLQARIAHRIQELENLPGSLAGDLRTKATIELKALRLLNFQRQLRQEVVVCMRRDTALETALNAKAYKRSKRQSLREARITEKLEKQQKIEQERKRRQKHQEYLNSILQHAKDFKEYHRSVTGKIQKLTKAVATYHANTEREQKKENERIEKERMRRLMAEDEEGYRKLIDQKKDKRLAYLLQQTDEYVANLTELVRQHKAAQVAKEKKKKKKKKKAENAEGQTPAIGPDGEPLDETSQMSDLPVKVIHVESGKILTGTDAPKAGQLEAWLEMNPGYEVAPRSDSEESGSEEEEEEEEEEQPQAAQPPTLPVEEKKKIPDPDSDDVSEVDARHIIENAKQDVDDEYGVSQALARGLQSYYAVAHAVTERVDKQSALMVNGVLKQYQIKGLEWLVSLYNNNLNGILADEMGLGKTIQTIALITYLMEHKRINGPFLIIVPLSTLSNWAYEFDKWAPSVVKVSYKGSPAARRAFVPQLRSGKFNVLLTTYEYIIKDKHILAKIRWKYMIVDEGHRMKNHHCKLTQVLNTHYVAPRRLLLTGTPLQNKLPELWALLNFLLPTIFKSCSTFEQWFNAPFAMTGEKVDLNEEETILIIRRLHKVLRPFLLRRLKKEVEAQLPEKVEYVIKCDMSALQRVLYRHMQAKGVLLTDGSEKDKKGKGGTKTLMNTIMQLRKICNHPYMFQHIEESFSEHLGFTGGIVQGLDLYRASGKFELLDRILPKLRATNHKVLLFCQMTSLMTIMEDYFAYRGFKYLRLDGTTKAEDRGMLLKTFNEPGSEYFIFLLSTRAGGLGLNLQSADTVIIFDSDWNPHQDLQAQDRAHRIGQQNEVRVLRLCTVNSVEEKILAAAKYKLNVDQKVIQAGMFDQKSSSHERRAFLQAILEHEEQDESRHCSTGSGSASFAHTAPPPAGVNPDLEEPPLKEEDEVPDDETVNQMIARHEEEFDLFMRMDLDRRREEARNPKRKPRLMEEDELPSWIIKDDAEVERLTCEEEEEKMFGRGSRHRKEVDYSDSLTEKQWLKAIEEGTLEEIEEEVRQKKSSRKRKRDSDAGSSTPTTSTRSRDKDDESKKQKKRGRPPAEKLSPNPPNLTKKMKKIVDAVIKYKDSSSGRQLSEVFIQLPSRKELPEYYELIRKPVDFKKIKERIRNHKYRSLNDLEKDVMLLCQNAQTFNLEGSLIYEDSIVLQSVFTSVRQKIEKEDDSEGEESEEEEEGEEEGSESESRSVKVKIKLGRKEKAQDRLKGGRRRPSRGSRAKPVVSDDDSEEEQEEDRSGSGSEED

SMILES	DC50 [1] [µM]	BRM HiBit Degradation Maximum measured [1]	DC50 [2] [µM]	Dmax [2] [%]
CS(=O)(=O)n1ccc(C(=O)NCC(=O)Nc2nc(-c3cccc(-c4ccnc(C5(C(=O)NCCCCS(=O)(=O)CCCNc6cccc7c6C(=O)N(C6CCC(=O)NC6=O)C7=O)CC5)c4)c3)cs2)c1 (stereo not shown) [Compound 103, N-(2-((4-(3-(2-(1-((4-((3-((2-(2,6-dioxopiperidin-3-yl)-1,3-dioxoisoindolin-4-yl)amino)propyl)sulfonyl)butyl)carbamoyl)-cyclopropyl)pyridin-4-yl)phenyl)thiazol-2-yl)amino)-2-oxoethyl)-1-(methylsulfonyl)-1H-pyrrole-3-carboxamide]	0.1 to 1	B (‘B’ = Maximum degradation ≥50% and ≤75%)	0.1 to 1	> 75
CS(=O)(=O)n1ccc(C(=O)NCC(=O)Nc2nc(-c3cccc(-c4ccnc(C5(C(=O)NCCCCCCNc6ccc7c(c6)C(=O)N(C6CCC(=O)NC6=O)C7=O)CC5)c4)c3)cs2)c1 (stereo not shown) [Compound 104, N-[2-[[4-[3-[2-[1-[6-[[2-(2,6-dioxo-3-piperidyl)-1,3-dioxo-isoindolin-5-yl]amino]hexylcarbamoyl]cyclopropyl]-4-pyridyl]phenyl]thiazol-2-yl]amino]-2-oxo-ethyl]-1-methylsulfonyl-pyrrole-3-carboxamide]	< 0.1	A (‘A’ = Maximum degradation >75%)	< 0.1	> 75
CS(=O)(=O)n1ccc(C(=O)NCC(=O)Nc2nc(-c3cccc(-c4ccnc(C5(C(=O)NCCCCNc6ccc7c(c6)C(=O)N(C6CCC(=O)NC6=O)C7=O)CC5)c4)c3)cs2)c1 (stereo not shown) [Compound 105, N-[2-[[4-[3-[2-[1-[4-[[2-(2,6-dioxo-3-piperidyl)-1,3-dioxo-isoindolin-5-yl]amino]butylcarbamoyl]cyclopropyl]-4-pyridyl]phenyl]thiazol-2-yl]amino]-2-oxo-ethyl]-1-methylsulfonyl-pyrrole-3-carboxamide]	< 0.1	A (‘A’ = Maximum degradation >75%)	< 0.1	> 75
CN(CCCCNC(=O)C1(c2cc(-c3cccc(-c4csc(NC(=O)CNC(=O)c5ccn(S(C)(=O)=O)c5)n4)c3)ccn2)CC1)CCCNc1cccc2c1C(=O)N(C1CCC(=O)NC1=O)C2=O (stereo not shown) [Compound 106, N-(2-((4-(3-(2-(1-((4-((3-((2-(2,6-dioxopiperidin-3-yl)-1,3-dioxoisoindolin-4-yl)amino)propyl)(methyl)amino)butyl)-carbamoyl)cyclopropyl)pyridin-4-yl)phenyl)thiazol-2-yl)amino)-2-oxoethyl)-1-(methylsulfonyl)-1H-pyrrole-3-carboxamide]	> 10	C (‘C’ = Maximum degradation <50%)	> 10	< 50
CS(=O)(=O)n1ccc(C(=O)NCC(=O)Nc2nc(-c3cccc(-c4ccnc(C5(C(=O)N6CC(COc7ccc8c(c7)C(=O)N(C7CCC(=O)NC7=O)C8=O)C6)CC5)c4)c3)cs2)c1 (stereo not shown) [Compound 107, N-(2-((4-(3-(2-(1-(3-(((2-(2,6-dioxopiperidin-3-yl)-1,3-dioxoisoindolin-5-yl)oxy)methyl)azetidine-1-carbonyl)cyclopropyl)pyridin-4-yl)phenyl)thiazol-2-yl)amino)-2-oxoethyl)-1-(methylsulfonyl)-1H-pyrrole-3-carboxamide]	> 10	C (‘C’ = Maximum degradation <50%)	> 10	< 50
Cc1ncsc1-c1ccc(CNC(=O)[C@@H]2C[C@@H](O)CN2C(=O)[C@@H](NC(=O)COCCOCCNC(=O)C2(c3cc(-c4cccc(-c5csc(NC(=O)CNC(=O)c6ccn(S(C)(=O)=O)c6)n5)c4)ccn3)CC2)C(C)(C)C)cc1 [Compound 108, N-[2-[[4-[3-[2-[1-[2-[2-[2-[[(1S)-1-[(2S,4R)-4-hydroxy-2-[[4-(4-methylthiazol-5-yl)phenyl]methylcarbamoyl]pyrrolidine-1-carbonyl]-2,2-dimethyl-propyl]amino]-2-oxo-ethoxy]ethoxy]ethylcarbamoyl]cyclopropyl]-4-pyridyl]phenyl]thiazol-2-yl]amino]-2-oxo-ethyl]-1-methylsulfonyl-pyrrole-3-carboxamide]	0.1 to 1	A (‘A’ = Maximum degradation >75%)	0.1 to 1	> 75
CS(=O)(=O)n1ccc(C(=O)NCC(=O)Nc2nc(-c3cccc(-c4ccnc(C5(C(=O)N6CC(COc7cccc8c7C(=O)N(C7CCC(=O)NC7=O)C8=O)C6)CC5)c4)c3)cs2)c1 (stereo not shown) [Compound 109, N-[4-[3-(2-[1-[3-([[2-(2,6-dioxopiperidin-3-yl)-1,3-dioxoisoindol-4-yl]oxy]methyl)azetidine-1-carbonyl]cyclopropyl]pyridin-4-yl)phenyl]-1,3-thiazol-2-yl]-2-[(1-methanesulfonylpyrrol-3-yl)formamido]acetamide]	> 10	C (‘C’ = Maximum degradation <50%)	> 10	< 50
Cc1ncsc1-c1ccc(CNC(=O)[C@@H]2C[C@@H](O)CN2C(=O)[C@@H](NC(=O)COCCOCCOCCNC(=O)C2(c3cc(-c4cccc(-c5csc(NC(=O)CNC(=O)c6ccn(S(C)(=O)=O)c6)n5)c4)ccn3)CC2)C(C)(C)C)cc1 [Compound 110, N-[2-[[4-[3-[2-[1-[2-[2-[2-[2-[[(1S)-1-[(2S,4R)-4-hydroxy-2-[[4-(4-methylthiazol-5-yl)phenyl]methylcarbamoyl]pyrrolidine-1-carbonyl]-2,2-dimethyl-propyl]amino]-2-oxo-ethoxy]ethoxy]ethoxy]ethylcarbamoyl]-cyclopropyl]-4-pyridyl]phenyl]thiazol-2-yl]amino]-2-oxo-ethyl]-1-methylsulfonyl-pyrrole-3-carboxamide]	0.1 to 1	B (‘B’ = Maximum degradation ≥50% and ≤75%)	0.1 to 1	> 75
CN(CCNC(=O)COc1ccc2c(c1)C(=O)N(C1CCC(=O)NC1=O)C2=O)CCNC(=O)C1(c2cc(-c3cccc(-c4csc(NC(=O)CNC(=O)c5ccn(S(C)(=O)=O)c5)n4)c3)ccn2)CC1 (stereo not shown) [Compound 111, N-[2-[[4-[3-[2-[1-[2-[2-[[2-[2-(2,6-dioxo-3-piperidyl)-1,3-dioxo-isoindolin-5-yl]oxyacetyl]amino]ethyl-methylamino]ethylcarbamoyl]cyclopropyl]-4-pyridyl]phenyl]thiazol-2-yl]amino]-2-oxo-ethyl]-1-methylsulfonyl-pyrrole-3-carboxamide]	> 10	C (‘C’ = Maximum degradation <50%)	> 10	< 50
CN(CCNC(=O)C1(c2cc(-c3cccc(-c4csc(NC(=O)CNC(=O)c5ccn(S(C)(=O)=O)c5)n4)c3)ccn2)CC1)CCOCCOc1cccc2c1C(=O)N(C1CCC(=O)NC1=O)C2=O (stereo not shown) [Compound 112, N-(2-((4-(3-(2-(1-((2-((2-(2-((2-(2,6-dioxopiperidin-3-yl)-1,3-dioxoisoindolin-4-yl)oxy)ethoxy)ethyl)(methyl)amino)-ethyl)carbamoyl)cyclopropyl)-pyridin-4-yl)phenyl)thiazol-2-yl)amino)-2-oxoethyl)-1-(methylsulfonyl)-1H-pyrrole-3-carboxamide]	> 10	C (‘C’ = Maximum degradation <50%)	> 10	< 50
CS(=O)(=O)n1ccc(C(=O)NCC(=O)Nc2nc(-c3cccc(-c4ccnc(C5(C(=O)NC6CCN(CCOc7ccc8c(c7)C(=O)N(C7CCC(=O)NC7=O)C8=O)CC6)CC5)c4)c3)cs2)c1 (stereo not shown) [Compound 113]	< 0.1	A (‘A’ = Maximum degradation >75%)	< 0.1	> 75
Cc1c(C(=O)NCC(=O)Nc2nc(-c3cccc(-c4ccnc(N(C)CC(=O)N5CCC(C6CCN(C(=O)COc7cccc8c7C(=O)N(C7CCC(=O)NC7=O)C8=O)CC6)CC5)c4)c3)cs2)cn(S(=O)(=O)C(C)C)c1C (stereo not shown) [Compound 116, N-(2-((4-(3-(2-((2-(1′-(2-((2-(2,6-dioxopiperidin-3-yl)-1,3-dioxoisoindolin-4-yl)oxy)acetyl)-[4,4′-bipiperidin]-1-yl)-2-oxoethyl)(methyl)amino)pyridin-4-yl)phenyl)thiazol-2-yl)amino)-2-oxoethyl)-1-(isopropylsulfonyl)-4,5-dimethyl-1H-pyrrole-3-carboxamide]	> 10	C (‘C’ = Maximum degradation <50%)	> 10	< 50
Cc1ncsc1-c1ccc(CNC(=O)[C@@H]2C[C@@H](O)CN2C(=O)[C@@H](NC(=O)CCCCCCCCCCCCC(=O)NCc2cccc(-c3cccc(-c4csc(NC(=O)CNC(=O)c5ccn(S(C)(=O)=O)c5)n4)c3)c2)C(C)(C)C)cc1 [Compound 118, N1-((S)-1-((2S,4R)-4-hydroxy-2-((4-(4-methylthiazol-5-yl)benzyl)carbamoyl)pyrrolidin-1-yl)-3,3-dimethyl-1-oxobutan-2-yl)-N14-((3′-(2-(2-(1-(methylsulfonyl)-1H-pyrrole-3-carboxamido)acetamido)thiazol-4-yl)-[1,1′-biphenyl]-3-yl)methyl)tetradecanediamide]	0.1 to 1	B (‘B’ = Maximum degradation ≥50% and ≤75%)	0.1 to 1	50 to 75
